Experimental data from the supplement of paper PMC11061612.

Key:
[1] = test system: A2780 (Ovarian Carcinoma); assay: Bliss excess, mean over the matrix (fraction); higher = more synergy
How it was run: (§1)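 Cell lines grown in DMEM/F12 or RPMI with 10% FBS were plated in 1536-well plates and held 24 hours at 37°C, 5% CO2 before 72 hours of exposure to two-drug dose matrices, with DMSO typically at 0.2%. CellTiter-Glo 2.0 luminescence gave viability, which was converted to inhibition. Vehicle wells were set to 0 and blank wells to 1. Combination Emax is the second-highest inhibition in the matrix, and Bliss excess is the observed combination effect minus the expected EA + EB − EA·EB, where EA and EB are the single-agent effects.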

[2] = test system: KYSE-220 (Esophageal Squamous Cell Carcinoma); assay: as above
How it was run: as §1

[3] = test system: 22RV1 (Prostate Carcinoma); assay: combination Emax (second highest fraction inhibited in the dose matrix, 72 h); higher = more inhibition; extreme values may be limits of the assay
How it was run: as §1

[4] = test system: CGTH-W-1 (Thyroid Gland Carcinoma); assay: as above
How it was run: as §1

HCC70 (Breast Carcinoma) = assay: as above
How it was run: as §1

IM-9 (Non-Cancerous) = assay: as above
How it was run: as §1

[5] = test system: NCI-H1651 (Lung Adenocarcinoma); assay: as above
How it was run: as §1

[6] = test system: NCI-H441 (Lung Adenocarcinoma); assay: as above
How it was run: as §1

[7] = test system: SW620 (Colorectal Carcinoma); assay: as above
How it was run: as §1

NB13 (Neuroblastoma) = assay: as above
How it was run: as §1
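For Bliss excess, mean over the matrix in this document: after 72 h of two-drug dosing.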

Row | Compound | Bliss excess [1] | Bliss excess [2] | combination Emax [3] | combination Emax [4] | combination Emax (HCC70 (Breast Carcinoma)) | combination Emax (IM-9 (Non-Cancerous)) | combination Emax [5] | combination Emax [6] | combination Emax [7] | combination Emax (NB13 (Neuroblastoma))
1 | O=C(c1cc(Cc2n[nH]c(=O)c3ccccc23)ccc1F)N1CCN(C(=O)C2CC2)CC1 [Olaparib] + Cc1c2c(nn1C)CSCc1cc(n(C)n1)CSc1cc(c3ccccc3c1)OCCCc1c(C(=O)O)n(C)c3c-2c(Cl)ccc13 [AZD5991] (first compound max 10 µM, 7x7, partner max 1 µM) | 0.0369 | -0.0573 | 0.519 | 0.0485 | 0.879 | 0.903 | 0.293 | 0.0979 | 0.173 | –
2 | Cc1c2c(nn1C)CSCc1cc(n(C)n1)CSc1cc(c3ccccc3c1)OCCCc1c(C(=O)O)n(C)c3c-2c(Cl)ccc13 [AZD5991] + CS(=O)(=O)CCNCc1ccc(-c2ccc3ncnc(Nc4ccc(OCc5cccc(F)c5)c(Cl)c4)c3c2)o1 [Lapatinib] (first compound max 1 µM, 7x7, partner max 10 µM) | 0.0013 | 0.0157 | 0.55 | 0.221 | 0.995 | 0.93 | 0.307 | 0.229 | 0.207 | 0.527
3 | CN(CCO)CC[C@H](CSc1ccccc1)Nc1ccc(S(=O)(=O)NC(=O)c2ccc(N3CCC([C@@H](O)c4ccccc4-c4ccc(Cl)cc4)CC3)cc2)cc1S(=O)(=O)C(F)(F)F [AZD4320] + CS(=O)(=O)CCNCc1ccc(-c2ccc3ncnc(Nc4ccc(OCc5cccc(F)c5)c(Cl)c4)c3c2)o1 [Lapatinib] (first compound max 1 µM, 7x7, partner max 10 µM) | 0.0005 | 0.0087 | 0.335 | 0.273 | 0.93 | 0.974 | 0.396 | 0.479 | 0.741 | 0.989
4 | Cc1nc(-c2cn3c(n2)-c2ccc(-c4cnn(C(C)(C)C(N)=O)c4)cc2OCC3)n(C(C)C)n1 [Taselisib] + O=C(Nc1ccc2[nH]nc(-c3ccncc3)c2c1)[C@@H]1CCN(CC(=O)N2CCN(c3ccc(-c4ncccn4)cc3)CC2)C1 [SCH772984] (first compound max 10 µM, 7x7, partner max 5 µM) | -0.0087 | 0.116 | 0.702 | 0.977 | 0.943 | 0.851 | 0.24 | 0.562 | 0.764 | 0.424
5 | C=CCn1c(=O)c2cnc(Nc3ccc(N4CCN(C)CC4)cc3)nc2n1-c1cccc(C(C)(C)O)n1 [AZD1775] + CCc1c2c(nc3ccc(O)cc13)-c1cc3c(c(=O)n1C2)COC(=O)[C@]3(O)CC [SN-38] (first compound max 1 µM, partner max 0.3 µM) | -0.0704 | -0.0563 | 0.732 | 0.703 | 0.537 | 1 | 0.86 | 0.685 | 0.949 | 0.853
6 | Cc1c2c(nn1C)CSCc1cc(n(C)n1)CSc1cc(c3ccccc3c1)OCCCc1c(C(=O)O)n(C)c3c-2c(Cl)ccc13 [AZD5991] + Nc1ccn([C@@H]2O[C@H](CO)[C@@H](O)C2(F)F)c(=O)n1 [Gemcitabine] (first compound max 1 µM, 7x7, partner max 0.3 µM) | -0.0035 | 0.0842 | 0.886 | 0.688 | 0.937 | 1 | 0.486 | 0.519 | 0.657 | –
7 | C[C@@H](Oc1cc(-c2cnn(C3CCNCC3)c2)cnc1N)c1c(Cl)ccc(F)c1Cl [Crizotinib] + Cn1cnc2c(F)c(Nc3ccc(Br)cc3Cl)c(C(=O)NOCCO)cc21 [Selumetinib] (first compound max 10 µM, 7x7, partner max 10 µM) | 0.0077 | 0.0436 | 0.59 | 0.213 | 0.448 | 1 | 0.0815 | 0.415 | 0.861 | 0.804
8 | C[C@@H]1COCCN1c1cc(C2([S@](C)(=N)=O)CC2)nc(-c2ccnc3[nH]ccc23)n1 [AZD6738] + C1CC(C1)(C(=O)[O-])C(=O)[O-].N.N.[Pt+2] [Carboplatin] (first compound max 10 µM, 7x7, partner max 10 µM) | -0.0379 | -0.0021 | 0.553 | 0.302 | 0.763 | 0.966 | 0.641 | 0.394 | 0.478 | 0.81
9 | CC1(C)CCC(CN2CCN(c3ccc(C(=O)NS(=O)(=O)c4ccc(NCC5CCOCC5)c([N+](=O)[O-])c4)c(Oc4cnc5[nH]ccc5c4)c3)CC2)=C(c2ccc(Cl)cc2)C1 [Venetoclax] + CS(=O)(=O)CCNCc1ccc(-c2ccc3ncnc(Nc4ccc(OCc5cccc(F)c5)c(Cl)c4)c3c2)o1 [Lapatinib] (first compound max 1 µM, 7x7, partner max 10 µM) | -0.0363 | -0.0233 | 0.266 | 0.115 | 0.343 | 0.958 | 0.129 | 0.165 | 0.184 | 0.43
10 | C[C@@H](Nc1cc(F)cc(F)c1)c1cc(C(=O)N(C)C)cc2c(=O)cc(N3CCOCC3)oc12 [AZD8186] + C1CN(CCC1(C(=O)N[C@@H](CCO)C2=CC=C(C=C2)Cl)N)C3=NC=NC4=C3C=CN4 [AZD5363] (first compound max 10 µM, 7x7, partner max 10 µM) | -0.0411 | -0.0132 | 0.546 | 0.316 | 0.732 | 0.57 | 0.112 | 0.28 | 0.24 | –
11 | O=C(c1cc(Cc2n[nH]c(=O)c3ccccc23)ccc1F)N1CCN(C(=O)C2CC2)CC1 [Olaparib] + CN(CC[C@H](CSC1=CC=CC=C1)NC2=C(C=C(C=C2)S(=O)(=O)NC(=O)C3=CC=C(C=C3)N4CCC(CC4)[C@H](C5=CC=CC=C5C6=CC=C(C=C6)Cl)O)S(=O)(=O)C(F)(F)F)CCO [AZD4320] (first compound max 10 µM, 7x7, partner max 1 µM) | -0.0295 | -0.0169 | 0.183 | 0.0708 | 0.253 | 0.924 | 0.299 | 0.213 | 0.329 | –
12 | C[C@@H]1COCCN1c1cc(C2([S@](C)(=N)=O)CC2)nc(-c2ccnc3[nH]ccc23)n1 [AZD6738] + Nc1ccn([C@@H]2O[C@H](CO)[C@@H](O)C2(F)F)c(=O)n1 [Gemcitabine] (first compound max 10 µM, 7x7, partner max 0.3 µM) | -0.0243 | -0.0686 | 0.754 | 0.947 | 0.826 | 1 | 0.747 | 0.568 | 0.895 | –
13 | O=C(c1cc(Cc2n[nH]c(=O)c3ccccc23)ccc1F)N1CCN(C(=O)C2CC2)CC1 [Olaparib] + CC1(C)CCC(CN2CCN(c3ccc(C(=O)NS(=O)(=O)c4ccc(NCC5CCOCC5)c([N+](=O)[O-])c4)c(Oc4cnc5[nH]ccc5c4)c3)CC2)=C(c2ccc(Cl)cc2)C1 [Venetoclax] (first compound max 10 µM, 7x7, partner max 1 µM) | -0.0044 | -0.0369 | 0.251 | 0.053 | 0.141 | 0.835 | 0.235 | 0.113 | 0.182 | –
14 | C[C@@H](Nc1cc(F)cc(F)c1)c1cc(C(=O)N(C)C)cc2c(=O)cc(N3CCOCC3)oc12 [AZD8186] + CC(=O)c1c(C)c2cnc(Nc3ccc(N4CCNCC4)cn3)nc2n(C2CCCC2)c1=O [Palbociclib] (first compound max 10 µM, 7x7, partner max 10 µM) | 0.0054 | -0.0494 | 0.563 | 0.311 | 0.575 | 0.682 | 0.17 | 0.447 | 0.481 | –
15 | CS(=O)(=O)CCNCc1ccc(-c2ccc3ncnc(Nc4ccc(OCc5cccc(F)c5)c(Cl)c4)c3c2)o1 [Lapatinib] + Cn1cnc2c(F)c(Nc3ccc(Br)cc3Cl)c(C(=O)NOCCO)cc21 [Selumetinib] (first compound max 10 µM, 7x7, partner max 10 µM) | -0.018 | -0.0056 | 0.464 | 0.245 | 0.891 | 0.994 | 0.151 | 0.32 | 0.656 | 0.521
16 | Cc1c2c(nn1C)CSCc1cc(n(C)n1)CSc1cc(c3ccccc3c1)OCCCc1c(C(=O)O)n(C)c3c-2c(Cl)ccc13 [AZD5991] + CC(=O)O[C@H]1C(=O)[C@@]2(C)[C@H]([C@H](OC(=O)c3ccccc3)[C@]3(O)C[C@H](OC(=O)[C@H](O)[C@@H](NC(=O)c4ccccc4)c4ccccc4)C(C)=C1C3(C)C)[C@]1(OC(C)=O)CO[C@@H]1C[C@@H]2O [Paclitaxel] (first compound max 1 µM, 7x7, partner max 3 µM) | 0.0614 | -0.006 | 0.912 | 0.59 | 0.973 | 1 | 0.912 | 0.401 | 0.788 | –
17 | O=C(c1cc(Cc2n[nH]c(=O)c3ccccc23)ccc1F)N1CCN(C(=O)C2CC2)CC1 [Olaparib] + COc1nnc2ccc(N3CCC(c4ccc(OCCN5CCN(C)C(=O)[C@H]5C)cc4)CC3)nn12 [AZD5153] (first compound max 10 µM, 7x7, partner max 1 µM) | -0.0856 | -0.045 | 0.546 | 0.218 | 0.281 | 0.752 | 0.367 | 0.353 | 0.447 | –
18 | C=CCn1c(=O)c2cnc(Nc3ccc(N4CCN(C)CC4)cc3)nc2n1-c1cccc(C(C)(C)O)n1 [AZD1775] + Nc1ccn([C@@H]2O[C@H](CO)[C@@H](O)C2(F)F)c(=O)n1 [Gemcitabine] (first compound max 1 µM, partner max 0.3 µM) | 0.0543 | 0.0029 | 0.744 | 0.761 | 0.513 | 1 | 0.762 | 0.55 | 0.9 | –
19 | C[C@@H](Oc1cc(-c2cnn(C3CCNCC3)c2)cnc1N)c1c(Cl)ccc(F)c1Cl [Crizotinib] + CC1=C(C(=CC=C1)Cl)NC(=O)C2=CN=C(S2)NC3=CC(=NC(=N3)C)N4CCN(CC4)CCO [Dasatinib] (first compound max 10 µM, 7x7, partner max 2 µM) | 0.051 | -0.0166 | 0.468 | 0.961 | 0.117 | 0.974 | 0.29 | 0.63 | 0.867 | 0.801
